From US5278146A, “CRF analogs” (The Salk Institute for Biological Studies, priority 1992, dated 1994)
[ ]: non-standard residue; d: D form. Nle = CCCC[C@H](N)C(=O)O

What was measured:
[1] = In vivo testing (procedure of C. Rivier et al., Science 218, 377): duration of potency and blood pressure; details: for Lowering of blood pressure: administered peripherally (where stated)
[2] = test system: cultured rat pituitary cells; experiment: Secretion of ACTH and β-endorphin by cultured rat pituitary cells; format: cell-based; details: for Stimulation of the secretion of ACTH and β-END-LI: general procedure of Example III
Protocol: The synthetic peptide [D-Glu^20 ]-oCRF is examined for its effects on the secretion of ACTH and β-endorphin vitro and was also in vivo. The potency of synthetic [D-Glu^20 ]-oCRF to stimulate the secretion of ACTH and β-endorphin by cultured rat pituitary cells is measured using the procedure as generally set forth in Endocrinology, 91, 562 (1972) and compared against synthetic oCRF.

| Compound | Lowering of blood pressure [1] | Stimulation of the secretion of ACTH and β-END-LI [2] | Duration of potency in vivo ([1]; in vivo) | EC50 ([2]; cultured rat pituitary cells, read-out: Concentration at which half-maximal responses are observed (ACTH and β-endorphin secretion)) [nM] | Potency relative to the native hormone ([2]; in vitro, compared against synthetic oCRF) | Secretory response to maximal concentrations ([2]; maximal (1-5 nM) concentrations) |
| --- | --- | --- | --- | --- | --- | --- |
| CC[C@H](C)[C@H](NC(=O)[C@@H](NC(=O)[C@H](CC(=O)O)NC(=O)[C@H](CC(C)C)NC(=O)[C@H](CC(C)C)NC(=O)[C@H](CC(C)C)NC(=O)[C@H](CCCNC(=N)N)NC(=O)[C@H](CC(N)=O)NC(=O)[C@H](CC(N)=O)NC(=O)[C@H](C)NC(=O)[C@H](C)NC(=O)[C@H](CCC(N)=O)NC(=O)[C@H](CCC(=O)O)NC(=O)[C@H](CCCCN)NC(=O)[C@H](CCC(=O)O)NC(=O)[C@H](CCCCN)NC(=O)[C@H](CCC(=O)O)NC(=O)[C@H](CCC(N)=O)NC(=O)[C@H](CCCCN)NC(=O)[C@H](CCCNC(=N)N)NC(=O)[C@H](C)NC(=O)[C@@H](CCC(=O)O)NC(=O)[C@@H](NC(=O)[C@H](CCSC)NC(=O)[C@H](CCCCN)NC(=O)[C@H](CCCNC(=N)N)NC(=O)[C@H](CC(C)C)NC(=O)[C@H](CC(C)C)NC(=O)[C@H](CCC(=O)O)NC(=O)[C@@H](Cc1ccccc1)NC(=O)[C@H](CO)NC(=O)[C@H](CC(C)C)NC(=O)[C@H](CC(=O)O)NC(=O)[C@@H](NC(=O)[C@H](CO)NC(=O)[C@@H](NC(=O)[C@@H]1CCCN1C(=O)[C@@H]1CCCN1C(=O)CNC(=O)[C@@H]1CCC(=O)N1)[C@@H](C)CC)[C@@H](C)CC)[C@@H](C)CC)[C@@H](C)CC)C(N)=O | very significant lowering of blood pressure | stimulates the secretion of ACTH and β-END-LI |  |  |  |  |
| CCCC[C@H](NC(=O)[C@@H](CCC(=O)O)NC(=O)[C@H](CC(C)C)NC(=O)[C@@H](NC(=O)[C@H](CCC(=O)O)NC(=O)[C@H](CCCNC(=N)N)NC(=O)[C@H](CC(C)C)NC(=O)[C@H](CC(C)C)NC(=O)[C@H](Cc1c[nH]cn1)NC(=O)[C@H](Cc1ccccc1)NC(=O)[C@@H](NC(=O)[C@H](CC(C)C)NC(=O)[C@H](CC(=O)O)NC(=O)[C@H](CC(C)C)NC(=O)[C@H](CO)NC(=O)[C@@H](NC(=O)[C@@H]1CCCN1C(=O)[C@@H]1CCCN1C(=O)[C@H](CCC(=O)O)NC(=O)[C@H](CCC(N)=O)NC(=O)[C@@H](N)CO)[C@@H](C)CC)[C@@H](C)O)C(C)C)C(=O)N[C@H](C(=O)N[C@@H](CCCCN)C(=O)N[C@@H](C)C(=O)N[C@@H](CC(=O)O)C(=O)N[C@@H](CCC(N)=O)C(=O)N[C@@H](CC(C)C)C(=O)N[C@@H](C)C(=O)N[C@@H](CCC(N)=O)C(=O)N[C@@H](CCC(N)=O)C(=O)N[C@@H](C)C(=O)N[C@H](Cc1c[nH]cn1)C(=O)N[C@@H](CO)C(=O)N[C@@H](CC(N)=O)C(=O)N[C@@H](CCCNC(=N)N)C(=O)N[C@@H](CCCCN)C(=O)N[C@@H](CC(C)C)C(=O)N[C@@H](CC(C)C)C(=O)N[C@@H](CC(=O)O)C(=O)N[C@H](C(=O)N[C@@H](C)C(N)=O)[C@@H](C)CC)[C@@H](C)O [[D-Glu^20, Nle^21, D-His^32]-oCRF] | very significant lowering of blood pressure | stimulates the secretion of ACTH and β-END-LI |  |  |  |  |
| CCCC[C@H](NC(=O)[C@@H](CCC(=O)O)NC(=O)[C@H](CC(C)C)NC(=O)[C@@H](NC(=O)[C@H](CCC(=O)O)NC(=O)[C@H](CCCNC(=N)N)NC(=O)[C@H](CC(C)C)NC(=O)[C@H](CC(C)C)NC(=O)[C@H](Cc1c[nH]cn1)NC(=O)[C@H](Cc1ccccc1)NC(=O)[C@@H](NC(=O)[C@H](CC(C)C)NC(=O)[C@H](CC(=O)O)NC(=O)[C@H](CC(C)C)NC(=O)[C@H](CO)NC(=O)[C@@H](NC(=O)[C@@H]1CCCN1C(=O)[C@@H]1CCCN1C(=O)[C@H](CCC(=O)O)NC(=O)[C@H](CCC(N)=O)NC(=O)[C@@H](N)CO)[C@@H](C)CC)[C@@H](C)O)C(C)C)C(=O)N[C@H](C(=O)N[C@@H](CCCCN)C(=O)N[C@@H](C)C(=O)N[C@@H](CC(=O)O)C(=O)N[C@@H](CCC(N)=O)C(=O)N[C@@H](CC(C)C)C(=O)N[C@@H](C)C(=O)N[C@@H](CCC(N)=O)C(=O)N[C@@H](CCC(N)=O)C(=O)N[C@@H](C)C(=O)N[C@@H](Cc1c[nH]cn1)C(=O)N[C@@H](CO)C(=O)N[C@@H](CC(N)=O)C(=O)N[C@@H](CCCNC(=N)N)C(=O)N[C@@H](CCCCN)C(=O)N[C@@H](CC(C)C)C(=O)N[C@@H](CC(C)C)C(=O)N[C@@H](CC(=O)O)C(=O)N[C@H](C(=O)N[C@@H](C)C(N)=O)[C@@H](C)CC)[C@@H](C)O [[D-Glu^20, Nle^21]-oCRF] | very significant lowering of blood pressure | stimulates the secretion of ACTH and β-END-LI |  |  |  |  |
| CC[C@H](C)[C@H](NC(=O)[C@H](CC(=O)O)NC(=O)[C@H](CC(C)C)NC(=O)[C@H](CC(C)C)NC(=O)[C@H](CCCCN)NC(=O)[C@H](CCCNC(=N)N)NC(=O)[C@H](CC(N)=O)NC(=O)[C@H](CO)NC(=O)[C@H](Cc1c[nH]cn1)NC(=O)[C@H](C)NC(=O)[C@H](CCC(N)=O)NC(=O)[C@H](CCC(N)=O)NC(=O)[C@H](C)NC(=O)[C@H](CC(C)C)NC(=O)[C@H](CCC(N)=O)NC(=O)[C@H](CC(=O)O)NC(=O)[C@H](C)NC(=O)[C@H](CCCCN)NC(=O)[C@@H](NC(=O)[C@H](CCSC)NC(=O)[C@@H](CCC(=O)O)NC(=O)[C@H](CC(C)C)NC(=O)[C@@H](NC(=O)[C@H](CCC(=O)O)NC(=O)[C@H](CCCNC(=N)N)NC(=O)[C@H](CC(C)C)NC(=O)[C@H](CC(C)C)NC(=O)[C@H](Cc1c[nH]cn1)NC(=O)[C@H](Cc1ccccc1)NC(=O)[C@@H](NC(=O)[C@H](CC(C)C)NC(=O)[C@H](CC(=O)O)NC(=O)[C@H](CC(C)C)NC(=O)[C@H](CO)NC(=O)[C@@H](NC(=O)[C@@H]1CCCN1C(=O)[C@@H]1CCCN1C(=O)[C@H](CCC(=O)O)NC(=O)[C@H](CCC(N)=O)NC(=O)[C@@H](N)CO)[C@@H](C)CC)[C@@H](C)O)C(C)C)[C@@H](C)O)C(=O)N[C@@H](C)C(N)=O [[D-Glu^20]-oCRF] | significant lowering of blood pressure |  | longer duration of potency | ~0.17 | about twice as potent as the native hormone | at a plateau level |
| Bz-Ser-Leu-Asp-Leu-Thr-D-Phe-His-Leu-Leu-Arg-Glu-Val-Leu-Glu-Nle-Ala-Arg-Ala-Glu-Gln-Leu-Ala-Gln-Gln-Ala-D-His-Ser-Asn-Arg-Lys-Leu-Nle-Glu-Ile-Ile-NH2 | very significant lowering of blood pressure | stimulates the secretion of ACTH and β-END-LI |  |  |  |  |
| H-D-Pro-Pro-Ile-Ser-Leu-Asp-Leu-Thr-D-Phe-His-Leu-Leu-Arg-Glu-Val-Leu-Glu- Nle-Ala-Arg-Ala-Glu-Gln-Leu-Ala-Gln-Gln-Ala-His-Ser-Asn-Arg-Lys-CML-Nle-Ile-Ile-NH2 | very significant lowering of blood pressure | stimulates the secretion of ACTH and β-END-LI |  |  |  |  |
| H-SQEPPISLDLTFHLLREVL[dE][Nle]TK[dA]DQLAQQAHSNRKL[Nle]DIA-NH2 [[D-Glu^20, D-Ala^24, Nle^21,38]-oCRF] | very significant lowering of blood pressure | stimulates the secretion of ACTH and β-END-LI |  |  |  |  |
| H-SQEPPISLDLTFHLLRE[Nle]L[dE][Nle]AKAEQEAEQA[dH]LNRLLLEEA-NH2 [[Nle^18,21, D-Glu^20, D-His^32]-AHC] | very significant lowering of blood pressure | stimulates the secretion of ACTH and β-END-LI |  |  |  |  |
